Assay results reported in US4060526A, “1-Heterocyclic alkyl-1,2,3,4-tetrahydroquinazolinones and analgesic intermediates thereof” (priority 1976, dated 1977).
Like-named read-outs stand apart in the source and are kept apart here.

Key:
[1] = phenylbenzoquinone writhing test, mouse; type: in vivo; conditions: mouse, in vivo
Experimental: (§7) In addition to the hot plate method, the writhing test described by Sigmund et al., Soc. Exp. Biol. and Med. 95:729 (1957) has been applied in both rats and mice as further indication of analgesics. […] The stimulus of intraperitoneal injection of phenylbenzoquinone results in a writhing syndrome characterized by periodic twisting and stretching of the body with extension of the hind legs. […] The dose of compound protecting 50% of the animals is determined and expressed as the ED50. Ten animals are used at each dose level.

[2] = test system: phenylbenzoquinone writhing; assay: phenylbenzoquinone writhing test, mouse; type: in vivo
Experimental: as §7

[3] = phenylbenzoquinone writhing test, rat; type: in vivo; conditions: rat, in vivo
Text: (§1) […]. […] Ten animals are used at each dose level.

[4] = test system: phenylbenzoquinone writhing; assay: phenylbenzoquinone writhing test, rat; type: in vivo
Text: as §1

[5] = test system: heat stimulus; assay: D'Amour Smith Rat Tail Flick; type: in vivo; conditions: Rattus norvegicus
Text: (§2) In the original method the time required for rats to flick their tails following application of a heat stimulus is taken as a measure of analgesic potency.

[6] = in vivo; conditions: for LD50 at 48 h: read-out: LD50 (48 hr); for LD50 / selectivity ratio: mouse
[7] = acute toxicity, rat; conditions: in vivo, sc; Rat s.c.; preliminary result
Experimental: (§3) Compounds were administered in 2% clearjel as a suspension except in
(§4) Toxicities have only been run with male animals to date.

[8] = acute toxicity, cat; conditions: in vivo
Experimental: as §3, §4

[9] = test system: isolated guinea pig ileum (Acetylcholine); assay: isolated guinea pig ileum screen, block of acetylcholine
[10] = test system: isolated guinea pig ileum (Histamine); assay: isolated guinea pig ileum screen, block of histamine (antihistaminic); conditions: for Amount to produce a 50% block of Histamine: isolated guinea pig ileum, 37° C.; for antihistaminic activity compared with diphenhydramine: words
Text: Contractions were elicited by histamine phosphate. The concentration of compound required to block these contractions when added to the tissue bath prior to introduction of histamine is taken as evidence of antihistaminic action.

[11] = test system: pinna reflex, corneal reflex; assay: pinna / corneal reflex test (Witkin et al.), tranquilizer activity; type: in vivo, mouse; conditions: for ratio of ED50 corneal/ED50 pinna: mouse, exceeding unity = tranquilizer type action; for tranquilizer classification from corneal/pinna ratio: words
Text: (§5) A tranquil sedation has been observed in mice, rats, cats and monkeys following administration of these compounds in doses exceeding those that are required for analgesia. In addition further indirect evidence for tranquilizer activity has been obtained by application of a method described by Witkin et al., J. Pharmacol, and Exp. Ther. 126:330 (1959)
This test is based upon observations that the pinna reflex of the mouse is blocked at relatively low doses of major tranquilizer drugs whereas very high doses are needed to block the corneal reflex. A ratio of ED50 corneal/ED50 pinna exceeding unity is taken as evidence of tranquilizer type action. […].

[12] = test system: oxymorphone induced mydriasis; assay: antagonism of oxymorphone induced mydriasis; type: in vivo, mice; conditions: words
Experimental: (§6) The compounds of this invention were tested for their ability to antagonize narcotic analgesics by two different tests. […] Another test used for narcotic antagonist activity was published by Harris & Pearson. This test is modification of the D'Amour & Smith method.

[13] = test system: morphine analgesia; assay: antagonism of morphine analgesia (Harris & Pearson, modified D'Amour & Smith); type: in vivo; conditions: rats; words
Experimental: as §6, §2

[14] = hypothermic effect, rectal temperature; type: in vivo; conditions: mice; words
Experimental: Rectal temperatures were recorded periodically in mice following administration of 740-222 by oral route.

[15] = test system: metrazol induced convulsions; assay: anticonvulsant activity, pentylenetetrazol (Metrazol) convulsions; type: in vivo; conditions: mice, words
[16] = test system: intestinal motility; assay: gastrointestinal motility suppression (Brittain & Collier, modified), charcoal; type: in vivo; conditions: mice, words
[17] = in vivo; set-up: species or system mice, rats, cats and monkeys
Text: as §5

[18] = analgesic activity and general pharmacology, conventional testing methods; type: in vivo; conditions: words
Text: Ten animals are used for each dose level.
Ten animals are used at each dose level.

[19] = solubility; type: physicochemical; conditions: words
[20] = in vivo; conditions: mouse
[21] = mouse hot plate test (Eddy and Leimbach, modified); conditions: mouse, in vivo, LD50 /ED50 H.P.
[22] = test system: heat stimulus; assay: mouse hot plate test (Eddy and Leimbach, modified); conditions: for ED50: Mus musculus, read-out: Hot Plate ED50
[23] = test system: NARCOTIC ANTAGONISM; assay: narcotic antagonism (Table IV); type: in vivo; conditions: I.P.
Experimental: as §6, §2

[24] = in vivo; conditions: ip
[25] = po, Mouse p.o., read-out: LD50 /ED50 Writhing

Compound | selectivity ratio ([1]; po) | selectivity ratio [1, 25] | ED50 ([2]; po, Mouse p.o.) | Amount to produce a 50% block of Acetylcholine [9] | Amount to produce a 50% block of Histamine [10] | antihistaminic activity compared with diphenhydramine [10] | ratio of ED50 corneal/ED50 pinna [11] | tranquilizer classification from corneal/pinna ratio [11] | antagonism of oxymorphone induced mydriasis [12] | antagonism of morphine analgesia [13] | hypothermic effect [14] | suppression of intestinal motility [16] | oral versus parenteral analgesic activity [18] | selectivity ratio ([20]; ip) | selectivity ratio ([20]; po) | selectivity ratio ([21]; ip, Mouse i.p.) | selectivity ratio ([21]; po, Mouse p.o.) | ED50 ([22]; ip) | ED50 ([22]; po) | ED50 ([22]; sc) | also measured
O=C1NC(c2ccccc2)N(CCN2CCN(c3ccccc3)CC2)c2ccccc21 (stereo not shown) [Example II, 1-[2-(1-Phenyl-4-piperazinyl)ethyl]-2-phenyl-1,2,3,4-tetrahydro-4-quinazolinone] | 9 | > 91 | 11 mg/kg | 1000 micrograms | 0.5 micrograms | about the same activity as the standard antihistaminic diphenhydramine | greater than 10 | classified as possessing tranquilizer activity | slight antagonism of oxymorphone induced mydriasis in mice by the intraperiteneal route only | not effective by the subcutaneous route | effectively reduced body temperature in normal mice | effective in suppressing intestinal motility in mice | more active by the oral than the parenteral route | 3.4 | 5 | > 17 | > 50 | 52 mg/kg | 20 mg/kg | > 562 mg/kg | activity relative to morphine, writhing test ([2]; mice): approximately one third; selectivity ratio ([3]; po): 7.1; selectivity ratio ([3]; po, Rat p.o., read-out: LD50 /ED50 Writhing): 71; ED50 ([4]; Rattus norvegicus, rats, oral, read-out: dose at which writhing syndrome is 50% blocked): 10 mg/kg; ED50 ([4]; po, Rat p.o., read-out: Writhing ED50): 14 mg/kg; ED50 ([5]; po, read-out: D'Amour Smith Rat Tail Flick ED50): > 100 mg/kg; LD50 at 48 h ([6]; ip, Mouse i.p.): > 2500 mg/kg; LD50 ([6]; mice, all routes tested, read-out: acute toxicity): > 1000 mg/kg; selectivity ratio ([6]; oral route, read-out: therapeutic index (lethal dose to effective dose)): > 300; LD50 at 48 h ([6]; po, Mouse p.o.): > 10000 mg/kg; LD50 at 48 h ([6]; sc, Mouse s.c.): > 1000 mg/kg; LD50 at 48 h [7]: > 1000 mg/kg; LD50 at 48 h ([8]; ip, Cat i.p., preliminary result (740-222)): > 1000 mg/kg; LD50 at 48 h ([8]; po, Cat p.o., preliminary result): > 1000 mg/kg; antagonism of metrazol induced convulsions ([15]; oral): able to antagonize these metrazol induced convulsions in mice; suppression of intestinal motility ([16]; listed as 740-222): reduces gut motility; selectivity ratio [17]: ~10; solubility [19]: low solubility; analgesic activity compared with codeine, hot plate ([22]; mice, oral, words): of the same order as codeine; analgesic activity compared with morphine, hot plate ([22]; mice, oral, words): slightly less than morphine
NC(=O)c1ccccc1NCCN1CCN(c2ccccc2)CC1 [Example I, 2-[2-(4-[1-Phenyl]piperazinyl)ethylamino]-benzamide] | 1.9 | > 340 | 2.9 mg/kg | 126 micrograms | 0.8 micrograms | about half as active as the standard | approximately 0.5 | within the range of ratios expected with sedatives (0.3 to 0.7) | effective in antagonizing oxymorphone induced mydriasis | at lower dose levels antagonism of morphine analgesia was observed in rats | also effective in this respect | less important | more active by the parenteral routes than by the oral route | 1.2 | 1.9 | 670 | > 330 | 1.5 mg/kg | 3 mg/kg | 4.1 mg/kg | selectivity ratio ([1]; sc): 6.3; selectivity ratio ([1]; sc, Mouse s.c., read-out: LD50 /ED50 Writhing): > 620; ED50 ([2]; sc, Mouse s.c.): 1.6 mg/kg; selectivity ratio [3]: 2; selectivity ratio ([3]; Rat Sub. cut, read-out: LD50 /ED50 Writhing): 400; ED50 ([4]; sc, Rat Sub. cut, read-out: Writhing ED50): 2.5 mg/kg; ED50 ([5]; sc, Sub. cut., read-out: Rat Tail Flick ED50): > 18 mg/kg; selectivity ratio [6]: > 300; LD50 ([6]; read-out: acute toxicity (LD50)): 800 to 1000 mg/kg; antagonism of metrazol induced convulsions ([15]; subcutaneous): not effective by the subcutaneous route; NARCOTIC ANTAGONISM [23]: Positive; analgesic activity compared with morphine, hot plate and writhing tests [18]: approximately equivalent to or slightly more active than morphine; selectivity ratio ([20]; sc): 2.4; LD50 [24]: 800 mg/kg; NOAEL [24]: 2 mg/kg; selectivity ratio ([21]; sc, Mouse s.c.): > 240
